Several values for one entry are separate records, joined by “and”; a condition that tells them apart may be missing. Equal values may be shown once. Square brackets hold non-standard residues; d marks the D form. Peptide text beside a SMILES is read from it. βAla = NCCC(=O)O
Key:
[1] = Conformational studies based on circular dichroism; type: physicochemical
Experimental: Conformational studies based on circular dichroism were performed under different conditions, such as: • 10 mM phosphate buffer, pH 7 • MES buffer 10 mM, pH 6 • Buffer acetate 10 mM, pH 5 • Phosphate buffer 10 mM/TFE (1:1) • TFE (trifluoroethanol)
Conformational studies based on circular dichroism were performed under different conditions such as: • 10 mM phosphate buffer, pH7 • Phosphate buffer 10mM/TFE, pH7 (1:1) • TFE (trifluoroethanol)
Conformational studies based on circular dichroism were performed under different conditions, such as: • 10 mM phosphate buffer, pH7 • MES buffer 10 mM, pH6 • Buffer acetate 10 mM, pH5 • Phosphate buffer 10 mM/TFE, pH7 (1:1) • TFE (trifluoroethanol)
Conformational studies based on circular dichroism were performed under different conditions, such as: • 10 mM phosphate buffer, pH7 • 10mM phosphate buffer/TFE (1:1) • TFE (trifluoroethanol)

P. viticola = type: in vivo, Plasmopara viticola (Berk. et Curt.) Berl. and De Toni; conditions: grapevine (Vitis vinifera cv. Pinot noir) leaf discs; mean ± standard deviation vs untreated control; concentration not given
[2] = test system: Agrobacterium tumefaciens GV3101; assay: Specificity: growth in liquid culture (OD620); type: cell-based; conditions: 200 µM; LB medium; measured hourly up to 5 h
P. ultimum = type: cell-based, Pythium ultimum var. ultimum Trow
P. capsici = type: cell-based, Phytophthora capsici Leonian
[3] = test system: human kidney proximal tubular cells (HKC-8)
[4] = Chemical-physical properties (isoelectric point, net charge, solubility in water); type: physicochemical; conditions: for net charge: at pH 7
[5] = pH 7-TFE: phosphate buffer 10 mM/TFE (1:1)

| SMILES | Disordered (%) ([1]; 10 mM phosphate buffer, pH 7) | Helixes (%) ([1]; 10 mM phosphate buffer, pH 7) | Sheets (%) ([1]; 10 mM phosphate buffer, pH 7) | Turns (%) ([1]; 10 mM phosphate buffer, pH 7) | Disordered (%) ([1]; TFE (trifluoroethanol)) | Helixes (%) ([1]; TFE (trifluoroethanol)) | Sheets (%) ([1]; TFE (trifluoroethanol)) | Turns (%) ([1]; TFE (trifluoroethanol)) | Disordered (%) [1, 5] [%] | Helixes (%) [1, 5] [%] | Sheets (%) [1, 5] [%] | Turns (%) [1, 5] [%] | P. viticola (IPP - %) (P. viticola) | bacterial growth (OD620) [2] | P. ultimum (IPP - %) (P. ultimum) | P. capsici (PIC - %) (P. capsici) | cytotoxicity (cell viability, absorption at 570 nm) [3] | isoelectric point [4] [pH] | net charge [4] | solubility in water [4] | other results |
| --- | --- | --- | --- | --- | --- | --- | --- | --- | --- | --- | --- | --- | --- | --- | --- | --- | --- | --- | --- | --- | --- |
| CC(C)C[C@@H]1NC(=O)[C@H](CCCNC(=N)N)NC(=O)CNC(=O)CCNC(=O)[C@H](C(C)C)NC(=O)[C@H](CCCNC(=N)N)NC(=O)[C@H](CC(C)C)NC(=O)[C@H](Cc2c[nH]c3ccccc23)NC(=O)[C@H](CCCNC(=N)N)NC1=O [CP32, βA-G-R-L-R-W-L-R-V] (cyclo(GRLRWLRV[βAla])) | 43 | 5 | 34 | 18 | 47 | 6 | 29 | 18 | 44 | 5 | 33 | 18 | 95% and 94.92 ± 6.45 (b) % | no alteration in bacterial growth | 85% and 85.42 ± 7.28 (b) % | 89.25 ± 7.35 (b) % | not toxic to human cells | 14 | +3 | good solubility in water | – |
| CSCC[C@@H]1NC(=O)[C@H](Cc2c[nH]c3ccccc23)NC(=O)[C@H](CCCNC(=N)N)NC(=O)CCNC(=O)[C@H](CCCNC(=N)N)NC(=O)[C@H](CCCNC(=N)N)NC(=O)[C@H](Cc2ccc(O)cc2)NC(=O)[C@H](C(C)C)NC(=O)[C@H](CC(C)C)NC1=O [CP20, βA-R-W-M-L-V-Y-R-R] (cyclo(LVYRR[βAla]RWM)) | 32 | 6 | 40 | 22 | 33 | 10 | 35 | 22 | 34 | 8 | 36 | 22 | 89.93 ± 11.69 (b) % | no alteration in bacterial growth | 75% and 75.98 ± 4.54 (c) % | 100% and 100 ± 0 (a) % | not toxic to human cells | 12.4 | +3 | good solubility in water | Disordered (%) ([1]; MES buffer 10 mM, pH 6): 34%; Helixes (%) ([1]; MES buffer 10 mM, pH 6): 8%; Sheets (%) ([1]; MES buffer 10 mM, pH 6): 37%; Turns (%) ([1]; MES buffer 10 mM, pH 6): 21%; Disordered (%) ([1]; acetate buffer 10 mM, pH 5): 31%; Helixes (%) ([1]; acetate buffer 10 mM, pH 5): 7%; Sheets (%) ([1]; acetate buffer 10 mM, pH 5): 39%; Turns (%) ([1]; acetate buffer 10 mM, pH 5): 23% |
